Assays:
Test in all cases: relative viability (nuclei count vs DMSO), 5 days (fraction); higher = more cells survive
[1] = tested on: NCI-H650
Summary of the method: (§1)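 Medians of duplicate plates are given as relative viability. That measure is the nuclei count in treated wells divided by the count in vehicle wells. Counts were taken on 4× images of lung cancer cell lines in 1536-well plates, 5 days after pin-tool dosing the day after seeding with one drug alone or a fixed anchor-drug dose plus five library-drug doses (not always all listed) in √10 steps.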

[2] = tested on: CAL-12T
Summary of the method: as §1

[3] = tested on: LCLC-103H
Summary of the method: as §1

[4] = tested on: NCI-H596
Summary of the method: as §1

[5] = tested on: EPLC-272H
Summary of the method: as §1

[6] = tested on: NCI-H647
Summary of the method: as §1

[7] = tested on: HOP-62
Summary of the method: as §1

[8] = tested on: NCI-H2085
Summary of the method: as §1

[9] = tested on: NCI-H1563
Summary of the method: as §1

[10] = tested on: RERF-LC-KJ
Summary of the method: as §1

[11] = tested on: NCI-H1993
Summary of the method: as §1

[12] = tested on: COR-L 105
Summary of the method: as §1

[13] = tested on: NCI-H2087
Summary of the method: as §1

[14] = tested on: NCI-H1975
Summary of the method: as §1

[15] = tested on: PC-14
Summary of the method: as §1

[16] = tested on: NCI-H1651
Summary of the method: as §1

[17] = tested on: NCI-H3122
Summary of the method: as §1

[18] = tested on: NCI-H1395
Summary of the method: as §1

[19] = tested on: LXF-289
Summary of the method: as §1

[20] = tested on: NCI-H2023
Summary of the method: as §1

[21] = tested on: COR-L23
Summary of the method: as §1

[22] = tested on: SK-MES-1
Summary of the method: as §1

[23] = tested on: A-427
Summary of the method: as §1

[24] = tested on: NCI-H2342
Summary of the method: as §1

[25] = tested on: NCI-H2170
Summary of the method: as §1

## CCCCCCCCCCCC1=C(O)C(=O)C=C(O)C1=O [Embelin] + COc1cc2c(Oc3ccc(NC(=O)C4(C(=O)Nc5ccc(F)cc5)CC4)cc3F)ccnc2cc1OCCCN1CCOCC1 [Foretinib] (partner 0.25 µM)
[1]; first compound 0.08 µM
  relative viability: 0.998
[1]; first compound 0.8 µM
  relative viability: 1.21
[1]; first compound 2.53 µM
  relative viability: 1.08
[1]; first compound 8 µM
  relative viability: 1.02
[2]; first compound 0.08 µM
  relative viability: 1.1
[2]; first compound 0.8 µM
  relative viability: 1.22
[2]; first compound 2.53 µM
  relative viability: 1.26
[2]; first compound 8 µM
  relative viability: 1.16
[3]; first compound 0.08 µM
  relative viability: 0.736
[3]; first compound 0.8 µM
  relative viability: 0.842
[3]; first compound 2.53 µM
  relative viability: 0.912
[3]; first compound 8 µM
  relative viability: 0.755
[4]; first compound 0.08 µM
  relative viability: 0.834
[4]; first compound 0.8 µM
  relative viability: 0.835
[4]; first compound 2.53 µM
  relative viability: 1.02
[4]; first compound 8 µM
  relative viability: 0.764
[5]; first compound 0.08 µM
  relative viability: 0.736
[5]; first compound 0.8 µM
  relative viability: 0.866
[5]; first compound 2.53 µM
  relative viability: 0.916
[5]; first compound 8 µM
  relative viability: 0.65
[6]; first compound 0.08 µM
  relative viability: 1.37
[6]; first compound 0.8 µM
  relative viability: 1.38
[6]; first compound 2.53 µM
  relative viability: 1.28
[6]; first compound 8 µM
  relative viability: 1.08
[7]; first compound 0.08 µM
  relative viability: 1.27
[7]; first compound 0.8 µM
  relative viability: 1.18
[7]; first compound 2.53 µM
  relative viability: 1.23
[7]; first compound 8 µM
  relative viability: 1.25
[8]; first compound 0.08 µM
  relative viability: 1.04
[8]; first compound 0.8 µM
  relative viability: 0.986
[8]; first compound 2.53 µM
  relative viability: 1.05
[8]; first compound 8 µM
  relative viability: 0.843
[9]; first compound 0.08 µM
  relative viability: 0.932
[9]; first compound 0.8 µM
  relative viability: 1.09
[9]; first compound 2.53 µM
  relative viability: 0.944
[9]; first compound 8 µM
  relative viability: 0.896
[10]; first compound 0.08 µM
  relative viability: 0.836
[10]; first compound 0.8 µM
  relative viability: 0.965
[10]; first compound 2.53 µM
  relative viability: 0.95
[10]; first compound 8 µM
  relative viability: 1
[11]; first compound 0.08 µM
  relative viability: 0.803
[11]; first compound 0.8 µM
  relative viability: 0.699
[11]; first compound 2.53 µM
  relative viability: 0.876
[11]; first compound 8 µM
  relative viability: 0.834
[12]; first compound 0.08 µM
  relative viability: 1.04
[12]; first compound 0.8 µM
  relative viability: 1.05
[12]; first compound 2.53 µM
  relative viability: 1.18
[12]; first compound 8 µM
  relative viability: 0.807
[13]; first compound 0.08 µM
  relative viability: 1.07
[13]; first compound 0.8 µM
  relative viability: 1.27
[13]; first compound 2.53 µM
  relative viability: 1.03
[13]; first compound 8 µM
  relative viability: 1.19
[14]; first compound 0.08 µM
  relative viability: 1.06
[14]; first compound 0.8 µM
  relative viability: 0.97
[14]; first compound 2.53 µM
  relative viability: 1.01
[14]; first compound 8 µM
  relative viability: 1.07
[15]; first compound 0.08 µM
  relative viability: 1.05
[15]; first compound 0.8 µM
  relative viability: 0.992
[15]; first compound 2.53 µM
  relative viability: 1.06
[15]; first compound 8 µM
  relative viability: 1.08
[16]; first compound 0.08 µM
  relative viability: 0.848
[16]; first compound 0.8 µM
  relative viability: 0.865
[16]; first compound 2.53 µM
  relative viability: 0.924
[16]; first compound 8 µM
  relative viability: 0.769
[17]; first compound 0.08 µM
  relative viability: 0.98
[17]; first compound 0.8 µM
  relative viability: 1.01
[17]; first compound 2.53 µM
  relative viability: 0.951
[17]; first compound 8 µM
  relative viability: 1.03
[18]; first compound 0.08 µM
  relative viability: 0.904
[18]; first compound 0.8 µM
  relative viability: 1.13
[18]; first compound 2.53 µM
  relative viability: 1.08
[18]; first compound 8 µM
  relative viability: 0.953
[19]; first compound 0.08 µM
  relative viability: 0.999
[19]; first compound 0.8 µM
  relative viability: 1
[19]; first compound 2.53 µM
  relative viability: 1.06
[19]; first compound 8 µM
  relative viability: 0.998
[20]; first compound 0.08 µM
  relative viability: 0.819
[20]; first compound 0.8 µM
  relative viability: 0.891
[20]; first compound 2.53 µM
  relative viability: 0.887
[20]; first compound 8 µM
  relative viability: 0.75
[21]; first compound 0.08 µM
  relative viability: 1
[21]; first compound 0.8 µM
  relative viability: 1.13
[21]; first compound 2.53 µM
  relative viability: 1.01
[21]; first compound 8 µM
  relative viability: 1.14
[22]; first compound 0.08 µM
  relative viability: 0.943
[22]; first compound 0.8 µM
  relative viability: 1.22
[22]; first compound 2.53 µM
  relative viability: 0.972
[22]; first compound 8 µM
  relative viability: 0.94
[23]; first compound 0.08 µM
  relative viability: 1.15
[23]; first compound 0.8 µM
  relative viability: 1.14
[23]; first compound 2.53 µM
  relative viability: 1.12
[23]; first compound 8 µM
  relative viability: 1.2
[24]; first compound 0.08 µM
  relative viability: 1.12
[24]; first compound 0.8 µM
  relative viability: 1.12
[24]; first compound 2.53 µM
  relative viability: 1.18
[24]; first compound 8 µM
  relative viability: 1.07
[25]; first compound 0.08 µM
  relative viability: 0.539
[25]; first compound 0.8 µM
  relative viability: 1.08
[25]; first compound 2.53 µM
  relative viability: 1.06
[25]; first compound 8 µM
  relative viability: 1

— the supplement of paper PMC10307832
